Test results reported in US20140323296A1, “Pesticide Compositions and Methods for Their Use” (priority 2004, published 2014).
Read-outs that look alike come from different tables or passages of the source.

How the values were obtained:
Conditions in all cases: in vivo
[1] = system: tomato plants (Lycopersicon esculentum var. Celebrity Hybrid, NK); assay: IA mitigation of insecticide phytotoxicity: KRYOCIDE with or without sucrose sprayed on potted tomato plants, vigor and appearance rating
Method: In general, tomato plants were contacted with three different treatment formulations: (1) the sodium aluminofluoride insecticide KRYOCIDE with water and surfactant, (2) an insecticide phytotoxicity reducing formulation according to the subject invention, i.e., KRYOCIDE/water/sucrose/surfactant, and (3) sucrose/water. An untreated control was also evaluated.
1) Nine week old potted tomato plants (Lycopersicon esculentum var. Celebrity Hybrid, NK) 2) Sodium Aluminofluoride 96% a.i. (KRYOCIDE) made up in a concentration equivalent to 15 lbs per 100 gallons water+Organosilicone Surfactant (Silwet L-77) at 3 oz per 100 gallons 3) KRYOCIDE at 15 lbs per 100 gallons spray mix+SILWET L-77 at 3 oz per 100 gallons spray mix+Sucrose at 25 lbs per 100 gallons spray mix 4) Sucrose at 25 lbs per 100 gallons spray mix+SILWET L-77 at 3 oz per 100 gallons

[2] = system: Mung Bean plants (Phaseolus aureus); assay: IB mitigation of bactericide-fungicide phytotoxicity: KOCIDE with or without sucrose sprayed on potted mung bean plants, leaf russeting, vigor and appearance rating
Method: In general, mung bean plants were contacted with three different treatment formulations: (1) the copper hydroxide bactericide-fungicide KOCIDE with water and surfactant, (2) a bactericide-fungicide phytotoxicity reducing formulation according to the subject invention, i.e., KOCIDE/water/sucrose/surfactant, and (3) sucrose/water. An untreated control was also evaluated.
1) Three week old potted Mung Bean plants (Phaseolus aureus) 2) Copper Hydroxide 20% a.i. (KOCIDE) made up in a concentration equivalent to 10 lbs per 100 gallons spray mix+Organosilicone Surfactant (SILWET L-77) at 3 oz per 100 gallons 3) KOCIDE at 10 lbs per 100 gallons spray mix+Sucrose at 25 lbs per 100 gallons+SILWET L-77 at 3 oz per 100 gallons 4) Sucrose at 25 lbs per 100 gallons+SILWET L-77 at 3 oz per 100 gallons

[3] = system: tomato plants (Lycopersicon esculentum var. Celebrity Hybrid, NK)
Method: (§1) In general, tomato plants were contacted with three different treatment formulations: (1) the clorothalonil fungicide BRAVO WEATHER STIK with water and surfactant, (2) a fungicide phytotoxicity reducing formulation according to the subject invention, i.e., BRAVO WEATHER STIK/water/sucrose/surfactant, and (3) sucrose/water. An untreated control was also evaluated.
1) Seven week old potted tomato plants (Lycopersicon esculentum var. Celebrity Hybrid, NK) 2) Clorothalonil 47% a.i. (BRAVO WEATHER STIK) made up in a concentration equivalent to 2 pints per 100 gallons water+Organosilicone Surfactant (SILWET L-77) at 3 oz per 100 gallons 3) BRAVO WEATHER STIK at 2 pints per 100 gallons spray mix+SILWET L-77 at 3 oz per 100 gallons+Sucrose at 25 lbs per 100 gallons 4) Sucrose at 25 lbs per 100 gallons+SILWET L-77 at 3 oz per 100 gallons

[4] = system: tomato plants (Lycopersicon esculentum var. Celebrity Hybrid, NK); assay: ID mitigation of fungicide phytotoxicity: ORBIT with or without sucrose sprayed on potted tomato plants, vigor, leaf distortion and appearance rating
Method: as §1, with “propiconazole” for “clorothalonil”, “ORBIT” for “BRAVO WEATHER STIK”, “ORBIT/water/sucrose/surfactant,” for “BRAVO WEATHER STIK/water/sucrose/surfactant,”
1) Nine week old potted tomato plants (Lycopersicon esculentum var. Celebrity Hybrid, NK) 2) Propiconazole 41.8% a.i. (ORBIT) made up in a concentration equivalent to 12 oz per 100 gallons water+Organosilicone Surfactant (SILWET L-77) at 3 oz per 100 gal 3) ORBIT at 12 oz per 100 gallons spray mix+SILWET L-77 at 3 oz per 100 gallons+Sucrose at 25 lbs per 100 gallons 4) Sucrose at 25 lbs per 100 gallons+SILWET L-77 at 3 oz per 100 gallons

Compound | overall vigor and appearance, Mean/Statistical Rank [1] [b] | overall vigor and appearance, Replication 1 [1] | overall vigor and appearance, Replication 2 [1] | overall vigor and appearance, Replication 3 [1] | overall vigor and appearance, Replication 4 [1] | russeting of leaves and overall vigor and appearance, Mean/Statistical Rank [2] [b] | russeting of leaves and overall vigor and appearance, Replication 1 [2] | russeting of leaves and overall vigor and appearance, Replication 2 [2] | russeting of leaves and overall vigor and appearance, Replication 3 [2] | russeting of leaves and overall vigor and appearance, Replication 4 [2] | overall vigor and appearance, Mean/Statistical Rank [3] | overall vigor and appearance, Replication 1 [3] | overall vigor and appearance, Replication 2 [3] | overall vigor and appearance, Replication 3 [3] | overall vigor and appearance, Replication 4 [3] | overall vigor, leaf distortion and appearance, Mean/Statistical Rank [4] [c] | overall vigor, leaf distortion and appearance, Replication 1 [4] | overall vigor, leaf distortion and appearance, Replication 2 [4] | overall vigor, leaf distortion and appearance, Replication 3 [4] | overall vigor, leaf distortion and appearance, Replication 4 [4]
OC[C@H]1O[C@@](CO)(O[C@H]2O[C@H](CO)[C@@H](O)[C@H](O)[C@H]2O)[C@@H](O)[C@@H]1O [Sucrose] | 9.75 | 10 | 9 | 10 | 10 | 10.00 | 10 | 10 | 10 | 10 | 10.00 b | 10 | 10 | 10 | 10 | 10.00 | 10 | 10 | 10 | 10
Clorothalonil [BRAVO WS] |  |  |  |  |  |  |  |  |  |  | 5.25 a | 5 | 5 | 6 | 5 |  |  |  |  | 
